Source: patent publication US11390900B2, “Antimicrobial cartridges and processes for multiplexed antimicrobial susceptibility testing” (priority 2018, dated 2022)
Where two headings read alike, the source gives them in different places.

What was measured:
E. faecalis 51299 = conditions: growth @ 100 (streptomycin), @ 500 (gentamicin); cited from earlier work
E. faecalis 29212 = conditions: cited from earlier work; for CLSI-Defined QC Range, screen result: E. faecalis 29212, no growth @ 100 48 hrs (streptomycin), @ 500 24 hrs (gentamicin); for CLSI-Defined QC Range: MIC range
patient sample microbes [1] = test: AST MIC results for antimicrobial panel 2 (384-well panel from Master Plate vs 96-well panel); format: cell-based; conditions: for MICs obtained from panel made from Master Plate: antimicrobial panel 2, 384 well patient cartridge; for MICs obtained from 96-well Antibiotic Panel: antimicrobial panel 2, standard 96 well AST assay plate
Text: (§1) An assay setup comprises preparation of patient (target) cartridge by dispensing antimicrobials were from the master cartridge or intermediate serial dilution cartridges into one or more 384 reservoir patient cartridge, each antimicrobial in about 7 serial dilutions in triplicate, and covering the dynamic range of each antimicrobial that is known to be effective and therefore should be reported. The dilution range included the expected minimum inhibitory concentration (MIC) for each antimicrobial. But most importantly, dilution ranges, that is, antimicrobial concentrations beyond the range known to be effective are included in the patient cartridge as per the present invention.
(§2) The remaining reservoirs of the 384 well patient cartridge are utilized for setting up test controls: a no-antimicrobial control (negative control) was included for each antimicrobial compound; and a positive control was included for each antimicrobial set, where a microorganism that is not susceptible to the antimicrobial was added to the well. Each control set was also dispensed at least in duplicate per 384 well cartridge. Additional test controls may be included as deemed necessary by one of skill in the art. Equal amount of a patient sample was dispensed to each of the wells in the cartridge, except in the wells designated for no-sample control, if included. The patient cartridge was ready for determination of susceptibility of microbes from the patient sample to the twelve antimicrobials at the range of concentrations applied, simultaneously. Multiple such plates can be set up in parallel for testing samples from multiple patients, each patient sample per plate. An AST assay was performed on the prepared patient cartridges.
(§3) First, three master plates are loaded by the user onto chilled plate holders (set to 4° C.). These consist of one Broad Spectrum, one Gram-Positive and one Gram-Negative antibiotic plate. Next the bulk reagents and pipette tips are loaded on tube rack. Master and bulk reagent pipette tips and sample dilution tray are reloaded every 12 samples. For every set of tests, up to four Patient Samples in tubes and up to four 384-well Target Plates (Patient plate) are loaded.
(§4) Antibiotics are transferred from Broad Spectrum Master Plate to Target Plate(s). Antibiotics are “stamped” according to FIG. 10A-B. The inoculator tips should be placed back in the same position of the Broad Spectrum Tip Box for use on subsequent target plates, but should only be used for same antibiotics to avoid cross contamination.
(§5) Antimicrobials are transferred from Gram-Positive OR Gram-Negative Master Plate to Target Plate(s) and the antibiotics are “stamped” according to FIG. 11A-B. The inoculator should place tips back in the same position of the correct tip box for use on subsequent target plates. Good care is taken such that any cross contamination is prevented.
(§6) Using new tips from the Sample Tip Box, 50 μL of diluted patient sample are transferred into Target Plate according to Table Four, this is done with a “jet dispense” to avoid cross contamination. After the Patient Sample has been transferred to each well on the Target Plate, the tips should be disposed of to avoid cross contamination. The above steps are repeated for each additional Patient Sample and Target Plate.
(§7) Shown in Table 6 and Table 7, MIC results for antimicrobial panels 1 and 2 respectively using a master cartridge format and a 384 well patient cartridge (column 3) agrees reliably with that run by standard 96 well AST assay plate (right hand column).

E. coli 25922 = conditions: MIC range, E. coli 25922, Gram negative panel; cited from earlier work
patient sample microbes [2] = test: AST MIC results for antimicrobial panel 1 (384-well panel from Master Plate vs 96-well panel); format: cell-based; conditions: for MICs obtained from panel made from Master Plate: antimicrobial panel 1, 384 well patient cartridge; for MICs obtained from 96-well Antibiotic Panel: antimicrobial panel 1, standard 96 well AST assay plate
Text: as §1, §2, §3, §4, §5, §6, §7

K. pneumoniae 700603 = conditions: MIC range, K. pneumoniae 700603, Gram negative panel; cited from earlier work
patient sample microbes [3] = conditions: antimicrobial panel 2, MIC range; cited from earlier work
patient sample microbes [4] = conditions: antimicrobial panel 1, MIC range; cited from earlier work
S. aureus BAA-1708 = conditions: growth @ 256; cited from earlier work
S. aureus 29213 = conditions: cited from earlier work; for CLSI-Defined QC Range, screen result: S. aureus 29213, no growth @ 0.5/4 (Cli/Ery), @ 4 (cefoxitin), @ 256 (mupirocin)
S. aureus 43300 = conditions: growth @ 4; cited from earlier work
[5] = E. faecalis 29212, Gram positive panel

Molecule	CLSI-Defined QC Range, screen result (E. faecalis 51299)	CLSI-Defined QC Range, screen result (E. faecalis 29212)	MICs obtained from panel made from Master Plate (patient sample microbes [1])	MICs obtained from 96-well Antibiotic Panel (patient sample microbes [1])	CLSI-Defined QC Range (E. coli 25922)	CLSI-Defined QC Range (E. faecalis 29212; [5])	MICs obtained from panel made from Master Plate (patient sample microbes [2])	MICs obtained from 96-well Antibiotic Panel (patient sample microbes [2])	CLSI-Defined QC Range (K. pneumoniae 700603)	Quality Control Range (patient sample microbes [3])	Quality Control Range (patient sample microbes [4])	CLSI-Defined QC Range, screen result (S. aureus 29213)	further results
[H]/N=C(/N)N[C@H]1[C@H](O)[C@@H](O)[C@H](O[C@@H]2O[C@@H](C)[C@](O)(C=O)[C@H]2O[C@@H]2O[C@@H](CO)[C@H](O)[C@@H](O)[C@@H]2NC)[C@@H](N/C(N)=N\[H])[C@@H]1O [Streptomycin High Level Screen, Streptomycin]	Positive (Growth @	Negative (No growth	–	–	–	–	–	–	–	–	–	–	–
CC1(C)S[C@@H]2[C@H](NC(=O)[C@H](N)c3ccccc3)C(=O)N2[C@H]1C(=O)O [Ampicillin]	–	–	1 µg/mL	1 µg/mL	2 to 8 µg/mL	0.5 to 2 µg/mL	4 µg/mL	8 µg/mL	>128 µg/mL	0.5-2	2-8	–	–
C/C(=C\C(=O)OCCCCCCCCC(=O)O)C[C@@H]1OC[C@H](C[C@@H]2O[C@H]2[C@@H](C)[C@H](C)O)[C@@H](O)[C@H]1O [Mupirocin High Level Screen, Mupirocin]	–	–	–	–	–	–	–	–	–	–	–	Negative (No growth	CLSI-Defined QC Range, screen result (S. aureus BAA-1708): Positive (Growth @
Gentamicin	Positive (Growth @	Negative (No growth	–	–	–	4 to 16 µg/mL	–	–	–	–	–	–	CLSI-Defined QC Range (E. faecalis 29212; E. faecalis 29212, Gram negative panel): 4 to 16 µg/mL
CO[C@@]1(NC(=O)Cc2cccs2)C(=O)N2C(C(=O)O)=C(COC(N)=O)CS[C@@H]21 [Cefoxitin]	–	–	–	–	2 to 8 µg/mL	–	–	–	–	–	–	Negative (No growth	CLSI-Defined QC Range, screen result (S. aureus 43300): Positive (Growth @
CC(C)(O/N=C(\C(=O)N[C@@H]1C(=O)N2C(C(=O)[O-])=C(C[n+]3ccccc3)CS[C@H]12)c1csc(N)n1)C(=O)O [Ceftazidime]	–	–	4 µg/mL	8 µg/mL	–	–	≤ 1 µg/mL	0.25 µg/mL	16 to 64 µg/mL	4-16	0.06-0.5	–	CLSI-Defined QC Range (S. aureus 29213; MIC range, S. aureus 29213, Gram negative panel): 4 to 16 µg/mL
